The values below come from article PMC5740082, “Identification of a CARM1 Inhibitor with Potent In Vitro and In Vivo Activity in Preclinical Models of Multiple Myeloma” (Scientific Reports, 2017).

One assay deals with U266 B1. Kind of assay: Six-day cell proliferation assay (CellTiter-Glo). It counts as cell-based. The following applies: Homo sapiens, U-266, 144 h; U266 B1 (MM), 6 days; read-out: Average day 6 gIC50. How it is done: (§1) Six-day cell proliferation assay
(§2) Optimal cell seeding density was determined empirically for each cell lines by examining the gro wth of a wide ran ge o f seedin g densities in a 3 84-well formatto identify conditio ns that permitted maximal and continued proliferation for 6 days. Cells were plat ed in duplicate plates 24 hours before treatment with a 20- point two-fold dilution series of compound or 0.15%
(§3) DMSO. Plates were incubated for 6 da ys at 37°C in 5% CO2. Cells were th en l ysed with CellTiter-Glo (CTG) (Pr omega) and chemiluminescent sign al was detected with an appropriat e microplate reader. In addition, an untreated plate of cells was harvested at the time of compound addition (T0) to quantif y the initial cell densit y. CTG values obtained after 6 days of treatment were expressed as a percent of the T0 value and plotted against compound concentration. […]
(§4) Supplementary Table S 3. […] A p anel […]
(§5) of cell lines was treated with EZM2302fo r 6da ys in a proliferation ass a y. Cell densit y (as assessed b y CellTiter-Gl o) at da y 0 was compared to day 6 to det ermine growth IC 50 values , calculated us i n g a f our parameter dose response equation.
(§6) Cell Type According to Cell Type Category Cell L ine Name gIC50 Average day 6 Standard Replicates

The subject of another assay is NOMO-1. Nature of the assay: Six-day cell proliferation assay (CellTiter-Glo). The assay is classed as cell-based. To be noted: Homo sapiens, 144 h; NOMO-1 (AML), 6 days; read-out: Average day 6 gIC50. How it is done:
as §1, §2, §3, §4, §5, §6
For orientation: Cellular ATP, detected with luciferase, serves as a proxy for viable cell number.

The next assay concerns SH-2. Nature of the assay: Six-day cell proliferation assay (CellTiter-Glo). The assay is classed as cell-based. The following applies: 144 h; SH-2 (AML), 6 days; read-out: Average day 6 gIC50. How it is done: as §1, §2, §3, §4, §5, §6
In a further assay the test system is TF-1. Kind of assay: Six-day cell proliferation assay (CellTiter-Glo). It counts as cell-based. To be noted: Homo sapiens, 144 h; TF-1 (AML M6; Erythroleukemia), 6 days; read-out: Average day 6 gIC50. How it is done:
as §1, §2, §3, §4, §5, §6

For another assay, the system named is SK-MM-2. Nature of the assay: Six-day cell proliferation assay (CellTiter-Glo). To be noted: Homo sapiens, 144 h; SK-MM-2 (Plasma cell leukemia), 6 days; read-out: Average day 6 gIC50. The assay is classed as cell-based. How it is done:
as §1, §2, §3, §4, §5, §6

In another assay the test system is SHI-1. Nature of the assay: Six-day cell proliferation assay (CellTiter-Glo). It counts as cell-based. To be noted: 144 h; SHI-1 (AML), 6 days; read-out: Average day 6 gIC50. How it is done:
as §1, §2, §3, §4, §5, §6

The next assay deals with UT-7. Nature of the assay: Six-day cell proliferation assay (CellTiter-Glo). The assay is classed as cell-based. The following applies: Homo sapiens, UT7, 144 h; UT-7 (AML), 6 days; read-out: Average day 6 gIC50. How it is done:
as §1, §2, §3, §4, §5, §6

For the next assay, the system named is RPMI-8226. Kind of assay: Six-day cell proliferation assay (CellTiter-Glo). It counts as cell-based. To be noted: Homo sapiens, 144 h; RPMI-8226 (MM), 6 days; read-out: Average day 6 gIC50. How it is done: as §1, §2, §3, §4, §5, §6
Another assay relates to OPM-2. Kind of assay: Six-day cell proliferation assay (CellTiter-Glo). The following applies: Homo sapiens, 144 h; OPM-2 (MM), 6 days; read-out: Average day 6 gIC50. The assay is classed as cell-based. How it is done:
as §1, §2, §3, §4, §5, §6

For another assay, the system named is UCSD-AML1. Kind of assay: Six-day cell proliferation assay (CellTiter-Glo). It counts as cell-based. To be noted: 144 h; UCSD-AML1 (AML), 6 days; read-out: Average day 6 gIC50. How it is done: as §1, §2, §3, §4, §5, §6
For assay [1], the target named is T1, rat recombinant kappa-opioid (KOP) receptor (Rattus norvegicus, UniProt P34975).
T1 construct: purchased CEREP, Redmond, WA (ExpresSProfile screen)
T1 sequence (P34975 whole entry): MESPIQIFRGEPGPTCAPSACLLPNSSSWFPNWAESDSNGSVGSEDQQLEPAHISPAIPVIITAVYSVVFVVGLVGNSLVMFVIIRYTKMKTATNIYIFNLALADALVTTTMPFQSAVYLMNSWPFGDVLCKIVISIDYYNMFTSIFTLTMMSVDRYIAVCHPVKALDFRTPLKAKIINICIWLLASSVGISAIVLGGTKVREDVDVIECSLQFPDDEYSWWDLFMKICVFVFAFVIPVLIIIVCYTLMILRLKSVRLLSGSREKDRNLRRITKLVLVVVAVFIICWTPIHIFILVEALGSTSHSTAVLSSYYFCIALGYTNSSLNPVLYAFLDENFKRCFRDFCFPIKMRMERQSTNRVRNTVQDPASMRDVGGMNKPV
Kind of assay: kappa-opioid (KOP) receptor binding assay. The source says:
(§7) […]. […] […]. […] […].

Another assay relates to REC-1. Nature of the assay: Six-day cell proliferation assay (CellTiter-Glo). The assay is classed as cell-based. To be noted: Homo sapiens, Rec1, 144 h; REC-1 (B-NHL), 6 days; read-out: Average day 6 gIC50. How it is done:
as §1, §2, §3, §4, §5, §6
Supplier Modifier gIC50 (nM) Deviation

Assay [2] concerns 55 receptors, ion channels and transporters. Nature of the assay: ExpresSProfile (CEREP) screen. The assay is classed as binding. The following applies: 10 μM.
Excerpt: as §7

The target of another assay is hERG channel (Homo sapiens, UniProt Q12809). Kind of assay: hERG channel current inhibition. To be noted: read-out: IC50 against hERG channel current inhibition. The assay is classed as biochemical.
Sequence of hERG channel (Q12809 whole entry): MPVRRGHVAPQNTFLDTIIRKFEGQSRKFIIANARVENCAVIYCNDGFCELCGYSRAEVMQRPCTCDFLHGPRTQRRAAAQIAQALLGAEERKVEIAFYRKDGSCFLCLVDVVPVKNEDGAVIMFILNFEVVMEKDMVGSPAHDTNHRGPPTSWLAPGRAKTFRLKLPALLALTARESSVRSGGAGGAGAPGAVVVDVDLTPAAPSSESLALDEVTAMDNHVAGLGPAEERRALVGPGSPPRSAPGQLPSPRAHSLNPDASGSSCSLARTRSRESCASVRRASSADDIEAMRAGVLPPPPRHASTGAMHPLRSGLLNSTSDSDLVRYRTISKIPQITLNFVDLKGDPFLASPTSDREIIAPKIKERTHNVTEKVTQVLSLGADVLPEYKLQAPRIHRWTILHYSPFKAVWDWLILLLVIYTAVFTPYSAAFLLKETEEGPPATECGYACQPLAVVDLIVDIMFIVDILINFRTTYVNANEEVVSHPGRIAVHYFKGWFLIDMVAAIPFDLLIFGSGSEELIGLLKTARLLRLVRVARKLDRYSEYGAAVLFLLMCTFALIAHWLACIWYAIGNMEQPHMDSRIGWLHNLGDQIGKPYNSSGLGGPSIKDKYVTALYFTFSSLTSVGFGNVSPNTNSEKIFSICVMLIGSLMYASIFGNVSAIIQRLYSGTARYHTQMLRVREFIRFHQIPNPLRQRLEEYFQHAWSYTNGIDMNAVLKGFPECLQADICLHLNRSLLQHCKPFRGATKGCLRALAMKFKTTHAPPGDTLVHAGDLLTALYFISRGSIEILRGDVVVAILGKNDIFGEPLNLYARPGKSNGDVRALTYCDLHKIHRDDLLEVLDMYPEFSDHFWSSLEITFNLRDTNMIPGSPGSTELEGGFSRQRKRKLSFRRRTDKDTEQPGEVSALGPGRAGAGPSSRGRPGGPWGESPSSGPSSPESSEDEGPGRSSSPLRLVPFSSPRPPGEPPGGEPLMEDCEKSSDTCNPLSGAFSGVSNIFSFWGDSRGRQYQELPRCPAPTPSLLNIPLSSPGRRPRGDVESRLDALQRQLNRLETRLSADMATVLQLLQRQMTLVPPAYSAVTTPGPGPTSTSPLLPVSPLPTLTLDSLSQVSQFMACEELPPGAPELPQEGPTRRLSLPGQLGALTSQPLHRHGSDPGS

Where only a bound is given, the exact number is not on record here.

By inhibition is commonly meant the percentage by which the read-out fell short of the control. `CNC[C@@H](O)COc1ccc(Cl)c(-c2nc(-c3c(C)noc3C)c(C)c(N3CC4(CCN(C(=O)OC)CC4)C3)n2)c1` [EZM2302]: the IC50 with U266 B1 is 22.1 µM; in the assay with NOMO-1, more than 36.5 µM; with SH-2, more than 36.7 µM; in the assay with TF-1 it was 25.9 µM; in the assay on SK-MM-2 it was 20.4 µM; in the assay with SHI-1 it was more than 36 µM. For the same compound, the IC50 was more than 27.6 µM in the assay with UT-7; more than 26.1 µM with RPMI-8226; 4.95 µM with OPM-2; more than 36.7 µM with UCSD-AML1; 3.3 µM in assay [1]; more than 7.33 µM in the assay with REC-1. Also, the IC50 at hERG channel was more than 100 µM. In addition, in assay [1] (10 μM), the inhibition at 10 µM came to 69%. Also, the “inhibition or stimulation in any of the assays except KOP receptor” value in assay [2] is on record as not above 40%.
